Reference: patent publication US7507727B2, “Substituted quinobenzoxazine analogs and methods of using thereof” (Cylene Pharmaceuticals, Inc., priority 2003, dated 2009)
Where “and” joins values, the source holds several entries; their conditions need not be identical. Equal values may be shown once. Entries after “also recorded” stand apart in the source; their conditions may differ. Read-outs that look alike come from different tables or passages of the source.

Assays:
PC-3 xenograft = assay: PC-3 prostate cancer xenograft model; format: in vivo, mice; settings: 5, 10 and 15 mg/kg i.p. q.o.d., FIG. 9
Protocol: CX-3543 was tested against a number of cancer xenograft models to determine the in vivo efficacy. HCT-116 and PC-3 tumor-bearing nu/nu or MiaPaCa tumor-bearing SCID mice were administered reference and testing compounds on schedules indicated in figure legends. Tumor measurements were taken with calipers every other day or twice a week starting from the first day of dosing and body weights were measured at the same time points. Tumor volumes were calculated from the standard formula, W^2×L/2. c-MYC mRNA expression was measured with QPCR from all tumor samples following the final dose. 18S ribosomal RNA was used as a housekeeper and also quantified with QPCR.

[1] = tested on: Salmonella typhimurium (TA97a, TA98, TA100, TA102, TA1535); settings: for FI / TA100 colony count (Rep 1-3) / TA100 colony count, Mean: dose range
Protocol: This Mutagenicity Assessment (Ames Assay) evaluated the potential of the test article extracts to induce histidine (his) reversion in S. typhimurium (his− to his+) or tryptophan (trp) reversion in E. coli (trp− to trp+) caused by base changes or frameshift mutations in the genome of tester organisms.
This plate incorporation assay was conducted with five strains of Salmonella typhimurium (TA97a, TA98, TA100, TA102, and TA1535) and one strain of Escherichia coli (WP2-uvrA^−) in the presence and absence of an exogenous mammalian activation system (S9). The test article was dissolved in 5% dextrose. A series of dilutions were then prepared in saline just prior to testing. A Range Finding Study was conducted for this assay to determine the appropriate doses for definitive mutagenicity assessment.
A stock solution of test article was prepared at 20.0 mg/mL as follows: 1.0 g test article was added to 15.0 mL of 0.1 HCl for 1 minute. The test article was stirred for 15 minutes at room temperature. Next 33.0 mL of deionized water was added and allowed to stir for 30 minutes. […] Lower doses were prepared by dilution in 5% dextrose from this stock immediately prior to use. To minimize any change of degradation, the test article solutions were kept on ice after preparation and until just prior to dosing procedures. The test article was administered in vitro, through a solvent compatible with the test system.
This assay has historically been used to detect mutation in a gene of a histidine requiring strain to produce a histidine independent strain or concordantly, to detect mutation in a gene of a tryptophan requiring strain to produce a tryptophan independent strain.
S. typhimurium strain TA1535 and E. coli strain Wp2-uvrA^− were received from American Type Culture Collection, Manassas, Va. […] All working stocks of test strains will be confirmed for genotypic markers and acceptable reversion rates.
Master plates of the tester strains were prepared from frozen working stocks. To create working cultures for each bacterial strain used in the assay, a single colony was transferred from the master plate into Oxoid nutrient broth and incubated, with shaking, at 37±2° C. until an optical density (at 650 nm) of 0.6-1.6 was reached. This overnight culture was used for the mutagenicity test and for genotypic confirmation. Genotype tests were performed.
For both the dose range and mutagenicity test, a top agar consisting of 0.6% Difco agar in 0.5% NaCl was melted and a solution of 0.5 mM L-histidine/0.5 mM biotin or 0.5 mM L-tryptophan was added to the melted top agar at a ratio of 10 mL per 100 mL agar, as required. The supplemented agar was aliquotted, 2 mL per tube and held at 45-47° C. To prepare the top agar for treatment, 0.1 mL of the test article or control, 0.1 mL of the bacterial culture and 0.5 mL of phosphate buffered saline were added to the molten agar. […] Metabolic activation was provided by adding 0.5 mL of the S9 mix in place of the PBS. […] All plates were counted using an automatic image analysis system. Negative control and test article treated plates were also examined for the presence of a bacterial lawn.
The in vitro metabolic activation system used in this assay was comprised of Sprague Dawley rat liver enzymes and a cofactor pool. […] Immediately prior to use, the S9 was thawed and mixed with a cofactor pool to contain 5% S9, 5 mM glucose 6-phosphate, 4 mM β-nicotine-adenine dinucleotide phosphate, 8 mM MgCl2 and 33 mM KCl in a 200 mM phosphate buffer at pH 7.4. The S9 was purchased from Moltox (Boone, N.C.) and maintained frozen at less than −70° C.
For the definitive assay, three dose levels were chosen ([…], and 5.0 mg/mL). This was equivalent to 2.0, 1.0, and 0.5 mg/plate. All treatments, including negative and positive control, were plated in triplicate against test strains TA97a, TA98, TA100, TA102, TA1535, and WP2-uvrA^− in the presence and absence of metabolic activation.

[2] = TA100, with S9 activation, 0.125 mg/plate
[3] = TA100, with S9 activation, 0.25 mg/plate
[4] = TA100, with S9 activation, 0.5 mg/plate
[5] = TA100, with S9 activation, 1.0 mg/plate
[6] = TA100, with S9 activation, 2.0 mg/plate
[7] = TA100, without S9 activation, 0.125 mg/plate
[8] = TA100, without S9 activation, 0.25 mg/plate
[9] = TA100, without S9 activation, 0.5 mg/plate
[10] = TA100, without S9 activation, 1.0 mg/plate
[11] = TA100, without S9 activation, 2.0 mg/plate

With `CN1CCCC1CCNC(=O)c1cn2c3c(c(N4CCC(c5cnccn5)C4)c(F)cc3c1=O)Oc1cc3ccccc3cc1-2` (centres unmarked) [CX-3543] the tumor growth inhibition (PC-3 xenograft) was “inhibits tumor growth; also recorded: significant tumor growth inhibition”, the “mutagenicity (reversion rates)” value ([1]; S. typhimurium, with and without S9) was “non-mutagenic” and the FI [1, 2] was 1.5. For the same compound, the “TA100 colony count (Rep 1-3)” value [1, 2] was 175 and 177, the “TA100 colony count, Mean” value [1, 2] was 175.7 and the FI [1, 3] was 1.5. For the same compound, the “TA100 colony count (Rep 1-3)” value [1, 3] was 185 and 177 and 189, the “TA100 colony count, Mean” value [1, 3] was 183.7 and the FI [1, 4] was 1.6. For the same compound, the “TA100 colony count (Rep 1-3)” value [1, 4] was 182 and 190 and 193, the “TA100 colony count, Mean” value [1, 4] was 188.3 and the FI [1, 5] was 1.4. For the same compound, the “TA100 colony count (Rep 1-3)” value [1, 5] was 175 and 147 and 168, the “TA100 colony count, Mean” value [1, 5] was 163.3 and the FI [1, 6] was 1.1. For the same compound, the “TA100 colony count (Rep 1-3)” value [1, 6] was 111 and 131 and 137, the “TA100 colony count, Mean” value [1, 6] was 126.3 and the FI [1, 7] was 1.1. The “TA100 colony count (Rep 1-3)” value [1, 7] was 153 and 144 and 135, the “TA100 colony count, Mean” value [1, 7] was 144.0 and the FI [1, 8] was 1.1. For the same compound, the “TA100 colony count (Rep 1-3)” value [1, 8] was 154 and 148 and 146, the “TA100 colony count, Mean” value [1, 8] was 149.3 and the FI [1, 9] was 1.1. The “TA100 colony count (Rep 1-3)” value [1, 9] was 161 and 154 and 137, the “TA100 colony count, Mean” value [1, 9] was 150.7 and the FI [1, 10] was 1.0. The “TA100 colony count (Rep 1-3)” value [1, 10] was 147 and 120 and 134, the “TA100 colony count, Mean” value [1, 10] was 133.7 and the FI [1, 11] was 0.9. For the same compound, the “TA100 colony count (Rep 1-3)” value [1, 11] was 126 and 117 and 122 and the “TA100 colony count, Mean” value [1, 11] was 121.7.
